ChEMBL document CHEMBL1201862, “PubChem BioAssay data set” (2004)
Active and inactive are the calls of the source.

Tests used:
[1] = biological target: Delta-type opioid receptor (Homo sapiens, UniProt P41143); assay: Counterscreen for agonists of heterodimerization of the mu 1 (OPRM1) and delta 1 (OPRD1) opioid receptors: Luminescence-based cell-based high throughput dose response assay to identify agonists of OPRD1 homodimerization. [Related pubchem assays (depositor defined):AID504326, AID504355, AID504692, AID504904, AID504905]; type: functional
Mu-type opioid receptor = Mu-type opioid receptor (Homo sapiens, UniProt P35372); assay: Counterscreen for agonists of heterodimerization of the mu 1 (OPRM1) and delta 1 (OPRD1) opioid receptors: Luminescence-based cell-based high throughput dose response assay to identify agonists of OPRM1 homodimerization.; type: functional;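 also: U2OS cells expressing OPRM1 and beta-arrestin as split beta-galactosidase partners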
[2] = biological target: Opioid receptors; mu & delta (Homo sapiens, UniProt P41143+P35372); assay: agonists of MOR-DOR heterodimerization, dose response, cell-based, luminescence (AID 588407); type: functional
[3] = biological target: 5-hydroxytryptamine receptor 5A (Homo sapiens, UniProt P47898); assay: Counterscreen for agonists of OPRM1-OPRD1 heterodimerization: luminescence-based cell-based high throughput dose response assay to identify agonists of 5-hydroxytryptamine (serotonin) 5A receptor (HTR5A). [Related pubchem assays (depositor defined):AID504326, AID504355, AID504692, AID504904, AID504905]; type: functional
[4] = biological target: T1, RNA-binding protein pos-1 (Caenorhabditis elegans, UniProt G5EF15); assay: inhibitors of POS-1/mex-3 RNA binding, dose response, biochemical, fluorescence polarization (AID 1964);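 also: purified POS-1 fused to maltose binding protein made in E. coli; potency of compounds blocking POS-1 binding to fluorescent RNA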
T1 sequence (G5EF15 whole entry): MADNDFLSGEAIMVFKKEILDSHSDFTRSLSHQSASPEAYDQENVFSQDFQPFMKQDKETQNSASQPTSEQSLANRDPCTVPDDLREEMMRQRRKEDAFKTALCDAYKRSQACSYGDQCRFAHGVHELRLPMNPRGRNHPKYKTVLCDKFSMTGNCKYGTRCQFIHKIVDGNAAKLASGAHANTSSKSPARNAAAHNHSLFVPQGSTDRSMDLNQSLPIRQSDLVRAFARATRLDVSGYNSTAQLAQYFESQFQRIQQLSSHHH

[5] = biological target: T2, Zinc finger protein mex-5 (Caenorhabditis elegans, UniProt Q9XUB2); assay: MEX-5/TCR-2 RNA interaction inhibitors, dose response, biochemical, C. elegans, fluorescence polarization (AID 1960)
T2 sequence (Q9XUB2 whole entry): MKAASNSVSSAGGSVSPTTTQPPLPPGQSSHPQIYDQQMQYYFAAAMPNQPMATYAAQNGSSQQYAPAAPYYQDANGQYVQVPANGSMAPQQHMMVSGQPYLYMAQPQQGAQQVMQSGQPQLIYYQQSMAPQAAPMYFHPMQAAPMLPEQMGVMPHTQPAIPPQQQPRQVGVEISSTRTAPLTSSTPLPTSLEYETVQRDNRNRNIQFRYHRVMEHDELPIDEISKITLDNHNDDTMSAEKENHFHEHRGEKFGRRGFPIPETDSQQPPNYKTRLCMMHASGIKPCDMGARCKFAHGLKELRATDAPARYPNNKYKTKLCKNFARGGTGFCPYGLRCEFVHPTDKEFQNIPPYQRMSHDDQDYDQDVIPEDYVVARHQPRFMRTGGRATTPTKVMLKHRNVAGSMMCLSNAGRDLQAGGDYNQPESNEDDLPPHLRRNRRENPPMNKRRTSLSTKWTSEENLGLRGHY

ORF 73 = biological target: T3, ORF 73 (Human herpesvirus 8, UniProt O40947); assay: inhibitors of C-LANA binding to LBS DNA, dose response, biochemical, fluorescence polarization, cherry-picked samples (AID 504725); set-up: species or system Human gammaherpesvirus 8;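 also: fluorescence polarization of a labeled DNA duplex reporting LANA DNA binding; potency is for inhibitors that block LANA binding to the DNA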
T3 sequence (O40947 whole entry): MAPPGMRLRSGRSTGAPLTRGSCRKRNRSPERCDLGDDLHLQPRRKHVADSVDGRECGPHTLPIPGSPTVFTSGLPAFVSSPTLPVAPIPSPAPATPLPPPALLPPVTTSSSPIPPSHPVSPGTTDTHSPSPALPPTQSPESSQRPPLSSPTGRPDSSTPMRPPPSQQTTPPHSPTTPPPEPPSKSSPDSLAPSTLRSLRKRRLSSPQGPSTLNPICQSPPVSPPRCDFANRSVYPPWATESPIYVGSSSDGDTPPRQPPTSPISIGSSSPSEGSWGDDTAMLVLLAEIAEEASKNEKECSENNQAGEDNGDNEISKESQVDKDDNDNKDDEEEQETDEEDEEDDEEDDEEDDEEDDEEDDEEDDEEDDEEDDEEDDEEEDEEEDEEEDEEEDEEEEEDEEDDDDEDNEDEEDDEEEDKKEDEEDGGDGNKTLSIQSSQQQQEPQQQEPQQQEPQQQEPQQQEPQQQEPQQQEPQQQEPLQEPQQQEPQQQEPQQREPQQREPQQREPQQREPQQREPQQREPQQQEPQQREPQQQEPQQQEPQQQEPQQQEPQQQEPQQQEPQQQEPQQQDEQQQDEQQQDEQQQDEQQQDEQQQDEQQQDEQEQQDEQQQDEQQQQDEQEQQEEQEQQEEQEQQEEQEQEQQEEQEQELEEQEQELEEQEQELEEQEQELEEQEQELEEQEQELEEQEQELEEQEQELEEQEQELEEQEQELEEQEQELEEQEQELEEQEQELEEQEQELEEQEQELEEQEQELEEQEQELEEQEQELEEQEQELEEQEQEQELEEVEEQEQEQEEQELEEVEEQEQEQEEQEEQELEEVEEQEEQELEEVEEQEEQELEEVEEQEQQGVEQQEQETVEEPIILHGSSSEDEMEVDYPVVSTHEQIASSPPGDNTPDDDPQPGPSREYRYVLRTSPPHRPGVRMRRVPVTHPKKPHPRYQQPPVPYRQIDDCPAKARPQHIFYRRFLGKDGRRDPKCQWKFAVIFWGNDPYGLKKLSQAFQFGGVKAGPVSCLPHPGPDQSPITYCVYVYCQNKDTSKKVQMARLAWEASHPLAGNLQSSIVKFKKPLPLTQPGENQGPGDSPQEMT

[6] = biological target: UDP-galactopyranose mutase (Mycobacterium tuberculosis, UniProt P9WIQ1); assay: Inhibitors of Mycobacterium tuberculosis UDP-galactopyranose mutase (UGM) enzyme Measured in Biochemical System Using Plate Reader - 2105-02_Inhibitor_Dose_CherryPick_Activity. [Related pubchem assays (depositor defined):AID504439]
Escherichia coli [7] = assay: microbe, parasite or virus in culture
Escherichia coli [8] = assay: microbe, parasite or virus in culture; remark: listed apart in the source
[9] = biological target: Glucose-6-phosphate 1-dehydrogenase (Homo sapiens, UniProt P11413); assay: human G6PD enzyme inhibitors, dose response, selectivity assay for P. falciparum G6PD inhibitor project, biochemical, fluorescence (AID 504792); type: functional
Beta-galactosidase = Beta-galactosidase (Escherichia coli, UniProt Q8VNN2); assay: beta-galactosidase enzyme inhibitors and activators, dose response, artefact control for CCR6 antagonist project, biochemical, E. coli enzyme, set 3 (AID 504712); type: functional
Nonstructural protein 1 = Nonstructural protein 1 (Influenza A virus, UniProt Q194T2); type: functional, Influenza A virus (A/California/07/2009(H1N1))
Hexokinase HKDC1 = biological target: T4, Hexokinase HKDC1 (Homo sapiens, UniProt Q2TB90); assay: HKDC1 hexokinase inhibitors, dose response, biochemical, W721R variant (AID 504729); type: functional
T4 sequence (Q2TB90 whole entry): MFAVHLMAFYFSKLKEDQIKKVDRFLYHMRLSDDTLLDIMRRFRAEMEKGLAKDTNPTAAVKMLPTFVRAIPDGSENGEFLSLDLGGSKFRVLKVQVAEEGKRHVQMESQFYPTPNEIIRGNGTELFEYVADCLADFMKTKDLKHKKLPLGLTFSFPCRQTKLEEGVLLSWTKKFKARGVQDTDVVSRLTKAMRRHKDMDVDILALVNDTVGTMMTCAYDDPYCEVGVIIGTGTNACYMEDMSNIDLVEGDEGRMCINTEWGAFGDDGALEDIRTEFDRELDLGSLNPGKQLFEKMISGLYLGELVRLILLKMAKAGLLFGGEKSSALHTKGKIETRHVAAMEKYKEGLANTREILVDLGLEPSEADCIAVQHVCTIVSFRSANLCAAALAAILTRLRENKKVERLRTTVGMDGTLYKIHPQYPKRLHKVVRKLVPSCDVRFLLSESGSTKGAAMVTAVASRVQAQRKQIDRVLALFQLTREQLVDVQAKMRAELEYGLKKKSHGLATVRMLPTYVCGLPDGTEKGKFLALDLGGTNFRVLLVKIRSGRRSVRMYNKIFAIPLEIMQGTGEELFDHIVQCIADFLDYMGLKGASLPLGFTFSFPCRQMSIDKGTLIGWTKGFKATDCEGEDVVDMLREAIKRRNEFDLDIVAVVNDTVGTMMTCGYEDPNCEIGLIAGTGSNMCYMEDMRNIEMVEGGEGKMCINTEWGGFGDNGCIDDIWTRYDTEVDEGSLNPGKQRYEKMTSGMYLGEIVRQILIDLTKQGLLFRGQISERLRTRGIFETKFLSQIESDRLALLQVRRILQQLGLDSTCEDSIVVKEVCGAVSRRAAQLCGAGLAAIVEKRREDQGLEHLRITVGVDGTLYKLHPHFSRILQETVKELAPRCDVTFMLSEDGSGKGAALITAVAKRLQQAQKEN

Vero = Vero cell cytotoxicity, cytotoxicity control for flavivirus capping enzyme inhibitors (AID 588742); type: functional; conditions: Chlorocebus sabaeus
Genome polyprotein = Genome polyprotein (dengue virus type 2, UniProt P29990); assay: Dengue-2 NS5 methyltransferase inhibitors, primary screen, biochemical, confirmation dose response (AID 588689); type: functional
[10] = biological target: T5, Histone-lysine N-methyltransferase NSD2 (Homo sapiens, UniProt O96028); type: biochemical
T5 sequence (O96028 whole entry): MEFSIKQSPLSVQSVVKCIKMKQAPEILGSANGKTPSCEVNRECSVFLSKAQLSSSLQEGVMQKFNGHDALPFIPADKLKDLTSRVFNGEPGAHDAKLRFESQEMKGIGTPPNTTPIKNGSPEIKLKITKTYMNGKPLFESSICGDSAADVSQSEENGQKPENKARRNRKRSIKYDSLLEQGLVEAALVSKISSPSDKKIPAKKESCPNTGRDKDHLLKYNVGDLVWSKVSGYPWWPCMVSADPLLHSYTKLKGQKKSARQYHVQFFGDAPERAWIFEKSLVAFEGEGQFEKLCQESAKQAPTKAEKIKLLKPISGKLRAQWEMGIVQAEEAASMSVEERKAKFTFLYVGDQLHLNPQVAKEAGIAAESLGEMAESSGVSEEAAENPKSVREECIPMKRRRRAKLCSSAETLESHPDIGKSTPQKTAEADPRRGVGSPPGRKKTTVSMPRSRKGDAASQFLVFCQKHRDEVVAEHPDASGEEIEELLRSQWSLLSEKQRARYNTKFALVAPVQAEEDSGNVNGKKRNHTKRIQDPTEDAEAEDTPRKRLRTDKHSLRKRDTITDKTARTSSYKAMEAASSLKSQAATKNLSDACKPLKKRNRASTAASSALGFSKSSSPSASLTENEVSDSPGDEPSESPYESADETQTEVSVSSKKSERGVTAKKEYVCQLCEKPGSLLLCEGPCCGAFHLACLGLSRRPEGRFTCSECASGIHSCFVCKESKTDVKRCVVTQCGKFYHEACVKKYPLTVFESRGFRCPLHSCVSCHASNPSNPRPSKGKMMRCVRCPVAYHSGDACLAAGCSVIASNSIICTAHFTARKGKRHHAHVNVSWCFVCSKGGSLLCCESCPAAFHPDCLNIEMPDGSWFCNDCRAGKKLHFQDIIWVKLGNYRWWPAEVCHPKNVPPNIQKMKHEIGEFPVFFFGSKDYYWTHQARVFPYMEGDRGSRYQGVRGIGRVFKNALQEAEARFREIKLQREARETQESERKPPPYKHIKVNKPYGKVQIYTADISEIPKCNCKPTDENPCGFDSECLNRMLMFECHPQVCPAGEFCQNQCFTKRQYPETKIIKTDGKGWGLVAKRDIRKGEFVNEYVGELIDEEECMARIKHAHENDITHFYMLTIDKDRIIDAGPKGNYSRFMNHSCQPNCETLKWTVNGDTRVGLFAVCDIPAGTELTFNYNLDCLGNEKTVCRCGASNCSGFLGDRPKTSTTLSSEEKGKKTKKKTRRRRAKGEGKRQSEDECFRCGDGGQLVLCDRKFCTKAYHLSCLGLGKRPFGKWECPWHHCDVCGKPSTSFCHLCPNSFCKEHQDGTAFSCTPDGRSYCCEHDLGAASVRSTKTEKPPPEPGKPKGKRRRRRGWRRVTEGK

[11] = THP-1 cell cytotoxicity, dose response, cytotoxicity control for Vif-APOBEC3G degradation inhibitor project, THP-1 cells (AID 1117359); type: functional; conditions: Human immunodeficiency virus 1, THP-1

Chain of Delta-type opioid receptor (P41143 whole entry): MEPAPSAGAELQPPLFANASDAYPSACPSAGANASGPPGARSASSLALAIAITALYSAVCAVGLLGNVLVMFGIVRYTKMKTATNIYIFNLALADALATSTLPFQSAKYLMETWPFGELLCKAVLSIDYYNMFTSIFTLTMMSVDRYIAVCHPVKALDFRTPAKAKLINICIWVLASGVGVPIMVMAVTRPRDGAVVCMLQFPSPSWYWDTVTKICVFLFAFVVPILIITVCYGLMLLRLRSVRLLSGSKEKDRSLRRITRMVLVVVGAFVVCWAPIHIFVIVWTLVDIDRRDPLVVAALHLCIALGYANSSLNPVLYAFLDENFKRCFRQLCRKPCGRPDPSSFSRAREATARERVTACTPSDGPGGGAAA
Chain of Beta-galactosidase (Q8VNN2 whole entry): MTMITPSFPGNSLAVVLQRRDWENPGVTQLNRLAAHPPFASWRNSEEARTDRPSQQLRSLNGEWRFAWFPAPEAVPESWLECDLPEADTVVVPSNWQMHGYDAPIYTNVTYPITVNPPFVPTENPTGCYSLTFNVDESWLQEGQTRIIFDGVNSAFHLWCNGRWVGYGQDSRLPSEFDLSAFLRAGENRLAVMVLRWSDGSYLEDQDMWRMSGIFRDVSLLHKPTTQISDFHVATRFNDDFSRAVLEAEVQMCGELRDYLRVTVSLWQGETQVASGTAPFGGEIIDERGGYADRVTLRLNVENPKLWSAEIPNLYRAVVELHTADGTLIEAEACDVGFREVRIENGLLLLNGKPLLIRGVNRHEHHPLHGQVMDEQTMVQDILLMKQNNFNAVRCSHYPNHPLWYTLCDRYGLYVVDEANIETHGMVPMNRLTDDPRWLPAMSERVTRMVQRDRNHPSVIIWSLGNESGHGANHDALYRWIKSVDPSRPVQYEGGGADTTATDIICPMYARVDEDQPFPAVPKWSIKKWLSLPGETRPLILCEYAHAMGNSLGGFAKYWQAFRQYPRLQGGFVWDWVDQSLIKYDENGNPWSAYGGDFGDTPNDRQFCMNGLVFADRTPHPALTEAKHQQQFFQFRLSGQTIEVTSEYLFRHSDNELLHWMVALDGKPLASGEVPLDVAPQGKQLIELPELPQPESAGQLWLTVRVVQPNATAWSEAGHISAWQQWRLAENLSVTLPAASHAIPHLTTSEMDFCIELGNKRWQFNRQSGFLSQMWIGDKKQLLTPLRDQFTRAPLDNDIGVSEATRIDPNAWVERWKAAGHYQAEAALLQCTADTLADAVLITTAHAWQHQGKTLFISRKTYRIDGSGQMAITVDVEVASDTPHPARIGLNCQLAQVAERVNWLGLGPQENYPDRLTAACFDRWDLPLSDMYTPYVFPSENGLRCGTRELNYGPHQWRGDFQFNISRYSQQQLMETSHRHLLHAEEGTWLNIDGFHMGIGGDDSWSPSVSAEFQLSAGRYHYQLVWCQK
Chain of Nonstructural protein 1 (Q194T2 whole entry): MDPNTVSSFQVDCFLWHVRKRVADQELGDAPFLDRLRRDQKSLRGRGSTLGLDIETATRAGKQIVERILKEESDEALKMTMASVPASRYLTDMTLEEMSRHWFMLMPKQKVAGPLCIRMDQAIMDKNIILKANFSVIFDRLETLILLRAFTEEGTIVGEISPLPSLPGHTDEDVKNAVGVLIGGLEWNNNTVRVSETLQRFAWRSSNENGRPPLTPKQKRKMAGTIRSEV
Chain of Genome polyprotein (P29990 2492-3391 limits assumed): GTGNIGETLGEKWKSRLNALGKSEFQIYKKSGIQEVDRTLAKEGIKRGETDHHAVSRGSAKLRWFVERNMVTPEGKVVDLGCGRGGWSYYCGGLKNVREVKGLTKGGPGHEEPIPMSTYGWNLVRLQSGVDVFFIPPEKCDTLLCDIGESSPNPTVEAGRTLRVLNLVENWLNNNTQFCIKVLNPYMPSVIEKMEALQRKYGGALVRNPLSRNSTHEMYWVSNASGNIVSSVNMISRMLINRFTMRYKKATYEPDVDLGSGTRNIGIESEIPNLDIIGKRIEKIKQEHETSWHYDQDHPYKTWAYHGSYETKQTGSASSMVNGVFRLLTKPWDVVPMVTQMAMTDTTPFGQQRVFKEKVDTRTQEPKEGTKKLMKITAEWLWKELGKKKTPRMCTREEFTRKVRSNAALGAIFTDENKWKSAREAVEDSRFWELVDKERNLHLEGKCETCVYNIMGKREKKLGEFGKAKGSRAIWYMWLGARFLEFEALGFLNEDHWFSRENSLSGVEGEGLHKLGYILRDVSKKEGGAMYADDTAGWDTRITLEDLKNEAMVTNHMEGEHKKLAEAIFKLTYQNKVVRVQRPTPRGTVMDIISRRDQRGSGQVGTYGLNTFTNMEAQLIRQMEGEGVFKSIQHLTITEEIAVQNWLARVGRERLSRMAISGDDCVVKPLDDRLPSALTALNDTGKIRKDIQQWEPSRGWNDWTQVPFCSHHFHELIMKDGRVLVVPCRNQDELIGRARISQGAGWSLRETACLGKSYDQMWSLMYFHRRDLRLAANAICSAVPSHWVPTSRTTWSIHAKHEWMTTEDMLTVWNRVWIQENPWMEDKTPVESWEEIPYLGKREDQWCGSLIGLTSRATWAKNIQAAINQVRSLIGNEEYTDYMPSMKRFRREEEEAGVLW
Chain of UDP-galactopyranose mutase (P9WIQ1 whole entry): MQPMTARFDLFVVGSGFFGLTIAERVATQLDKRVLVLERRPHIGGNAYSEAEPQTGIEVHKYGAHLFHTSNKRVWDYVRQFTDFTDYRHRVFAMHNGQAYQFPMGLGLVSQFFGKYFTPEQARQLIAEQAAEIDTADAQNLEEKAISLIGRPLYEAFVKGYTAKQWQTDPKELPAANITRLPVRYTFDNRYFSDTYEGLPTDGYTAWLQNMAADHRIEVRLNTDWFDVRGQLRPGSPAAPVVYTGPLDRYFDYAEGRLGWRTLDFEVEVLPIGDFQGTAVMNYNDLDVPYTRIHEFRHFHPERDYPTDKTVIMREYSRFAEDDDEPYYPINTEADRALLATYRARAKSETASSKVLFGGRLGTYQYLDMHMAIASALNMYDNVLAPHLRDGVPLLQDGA
Chain of 5-hydroxytryptamine receptor 5A (P47898 whole entry, the tested form may be a part): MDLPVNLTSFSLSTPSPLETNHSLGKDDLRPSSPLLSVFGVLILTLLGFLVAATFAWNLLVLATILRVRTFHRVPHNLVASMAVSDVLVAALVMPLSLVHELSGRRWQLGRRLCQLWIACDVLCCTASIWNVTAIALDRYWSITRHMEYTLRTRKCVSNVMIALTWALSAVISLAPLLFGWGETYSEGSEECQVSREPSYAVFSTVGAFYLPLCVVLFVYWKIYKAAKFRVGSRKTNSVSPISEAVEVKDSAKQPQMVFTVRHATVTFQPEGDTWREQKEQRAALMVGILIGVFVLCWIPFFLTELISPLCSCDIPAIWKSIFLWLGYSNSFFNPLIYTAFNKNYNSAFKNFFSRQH
Chain of Mu-type opioid receptor (P35372 whole entry): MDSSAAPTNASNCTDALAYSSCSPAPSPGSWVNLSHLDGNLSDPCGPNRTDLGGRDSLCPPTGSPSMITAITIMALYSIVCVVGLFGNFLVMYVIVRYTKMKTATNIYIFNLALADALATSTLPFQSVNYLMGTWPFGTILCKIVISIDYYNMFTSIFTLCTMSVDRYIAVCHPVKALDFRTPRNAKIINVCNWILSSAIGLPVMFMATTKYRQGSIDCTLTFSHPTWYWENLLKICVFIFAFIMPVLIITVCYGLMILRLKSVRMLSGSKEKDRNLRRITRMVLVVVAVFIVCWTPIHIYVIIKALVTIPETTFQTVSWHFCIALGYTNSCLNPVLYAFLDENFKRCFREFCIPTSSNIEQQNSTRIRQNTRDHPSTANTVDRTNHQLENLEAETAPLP
Chain of Glucose-6-phosphate 1-dehydrogenase (P11413 whole entry): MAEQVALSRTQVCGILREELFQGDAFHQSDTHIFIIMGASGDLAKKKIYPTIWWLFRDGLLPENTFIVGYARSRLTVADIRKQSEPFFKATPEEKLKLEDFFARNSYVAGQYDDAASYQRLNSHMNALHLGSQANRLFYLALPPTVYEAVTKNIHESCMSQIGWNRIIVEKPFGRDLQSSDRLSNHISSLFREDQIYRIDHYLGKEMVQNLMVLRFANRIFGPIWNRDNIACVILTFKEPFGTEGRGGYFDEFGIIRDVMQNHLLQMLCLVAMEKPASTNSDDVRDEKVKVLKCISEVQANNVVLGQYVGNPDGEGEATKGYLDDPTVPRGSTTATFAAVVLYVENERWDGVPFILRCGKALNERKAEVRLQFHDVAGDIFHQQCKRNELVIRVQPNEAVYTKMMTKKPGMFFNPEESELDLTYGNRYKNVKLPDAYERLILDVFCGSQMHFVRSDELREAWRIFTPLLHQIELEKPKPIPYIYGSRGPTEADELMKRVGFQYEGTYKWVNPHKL

In the case of COc1ccc(NC(=O)COc2ccccc2C(=O)NCC(c2ccccc2)N(C)C)cc1Cl (stereo not drawn), the EC50 [1] is reported as 9.79 µM (active), the EC50 (Mu-type opioid receptor) is reported as > 92.5 µM (inactive) and the EC50 [2] is reported as > 3.425 µM. The EC50 [3] was > 92.5 µM (inactive).

With Cc1ccc(C)c(N2CCN(C(=O)c3cc4ccccn4n3)CC2)c1 the EC50 [4] was 72.9 µM (active), the EC50 [5] was 33.7 µM (active) and the AC50 (ORF 73) was 269 µM (active). For the same compound, the AC50 [6] was 177 µM (active).

In the case of Cc1nn(C)cc1S(=O)(=O)Nc1ccccc1Br, the AC50 (Escherichia coli [7]) is reported as 65.8 µM (active) and the AC50 (Escherichia coli [8]) is reported as 66.8 µM (active).

In the case of CC1COCC(C)N1C1=C(Cl)C(=O)c2ccccc2C1=O (stereo not drawn), the IC50 [9] is reported as 72.9 µM (inactive), the IC50 (Beta-galactosidase) is reported as > 66.6 µM (inactive) and the IC50 (Nonstructural protein 1) is reported as 17.9 µM (active). The IC50 (Hexokinase HKDC1) was > 80 µM (inactive), the CC50 (Vero) was 23.4 µM (active) and the IC50 (Genome polyprotein) was 16.2 µM (active). The AC50 [10] was 0.873 µM (active) and the CC50 [11] was 16.1 µM (active).
